Measurements reported in patent US9370186B2 (priority 2012, dated 2016).
≈ marks a conversion by molar mass, not a printed value. Like-named read-outs stand apart in the source and are kept apart here.

Key:
Phytophthora infestans [1] = format: in vivo; settings: tomatoes, 3 days after inoculation
Phytophthora infestans [2] = experiment: whole plant or invertebrate; format: in vivo; settings: for Practical dose for 70% efficacy: EC70, compound alone, preventive 24 h, potato leaf discs; for EC50: Phytophthora infestans, in Solanum tuberosum, foliar, 24 h, read-out: Practical dose for 50% efficacy

Structure (SMILES)	Efficacy in % found (Phytophthora infestans [1]; 5 ppm a.i.) [%]	Practical dose for 70% efficacy (Phytophthora infestans [2]) [mg a.i./L]	EC50 (Phytophthora infestans [2]) [µg/mL]	Efficacy (%) ethaboxam alone (Phytophthora infestans [2]; ethaboxam 0.75 mg a.i./L) [%]	Efficacy (%) ethaboxam alone (Phytophthora infestans [2]; ethaboxam 1.5 mg a.i./L) [%]	Efficacy (%) ethaboxam alone (Phytophthora infestans [2]; ethaboxam 3 mg a.i./L) [%]	Efficacy (%) ethaboxam alone (Phytophthora infestans [2]; ethaboxam 6 mg a.i./L) [%]	Efficacy (%) ethaboxam alone (Phytophthora infestans [2]; ethaboxam 12 mg a.i./L) [%]	Efficacy (%) ethaboxam alone (Phytophthora infestans [2]; ethaboxam 24 mg a.i./L) [%]	Efficacy (%) ethaboxam alone (Phytophthora infestans [2]; ethaboxam 75 mg a.i./L) [%]	Efficacy in % found (Phytophthora infestans [1]; 0.5 ppm a.i.) [%]	Efficacy (%) fenamidone alone (Phytophthora infestans [2]; fenamidone 0.5 mg a.i./L) [%]	Efficacy (%) fenamidone alone (Phytophthora infestans [2]; fenamidone 1 mg a.i./L) [%]	Efficacy (%) fenamidone alone (Phytophthora infestans [2]; fenamidone 2 mg a.i./L) [%]	Efficacy (%) fenamidone alone (Phytophthora infestans [2]; fenamidone 4 mg a.i./L) [%]	Efficacy (%) fenamidone alone (Phytophthora infestans [2]; fenamidone 8 mg a.i./L) [%]	Efficacy (%) fenamidone alone (Phytophthora infestans [2]; fenamidone 16 mg a.i./L) [%]	Efficacy (%) fenamidone alone (Phytophthora infestans [2]; fenamidone 50 mg a.i./L) [%]
CCNc1nc(CC)c(C(=O)NC(C#N)c2cccs2)s1 (centres unmarked) [ethaboxam, N-(cyano-2-thienylmethyl)-4-ethyl-2-(ethylamino)-5-thiazolcarboxamide]	40	27.820	15.3 (≈ 47.7 µM)	0	0	5	13	67	73	75	–	–	–	–	–	–	–	–
CSC1=N[C@@](C)(c2ccccc2)C(=O)N1Nc1ccccc1 [fenamidone, (S)-3,5-dihydro-5-methyl-2-(methylthio)-5-phenyl-3-(phenylamino)-4H-imidazol-4-one]	–	9.764	6.26 (≈ 20.1 µM)	–	–	–	–	–	–	–	28	0	0	5	29	83	82	91
